Patent US11780893B2, “Kv1.3 blockers” (Zealand Pharma A/S, priority 2019, dated 2023)
Read-outs that look alike come from different tables or passages of the source. Bridge positions count the residues as written; N and C are the ends. Square brackets hold non-standard residues; d marks the D form. Peptide text beside a SMILES is read from it. Nle = CCCC[C@H](N)C(=O)O

Experiments:
Experiment in all cases: cell-based
[1] = molecular target: T1, human Kv1.3 voltage-gated K+ channel (Homo sapiens, UniProt P22001)
T1 construct: host or cells: CHO-DUKX
T1 sequence (P22001 whole entry): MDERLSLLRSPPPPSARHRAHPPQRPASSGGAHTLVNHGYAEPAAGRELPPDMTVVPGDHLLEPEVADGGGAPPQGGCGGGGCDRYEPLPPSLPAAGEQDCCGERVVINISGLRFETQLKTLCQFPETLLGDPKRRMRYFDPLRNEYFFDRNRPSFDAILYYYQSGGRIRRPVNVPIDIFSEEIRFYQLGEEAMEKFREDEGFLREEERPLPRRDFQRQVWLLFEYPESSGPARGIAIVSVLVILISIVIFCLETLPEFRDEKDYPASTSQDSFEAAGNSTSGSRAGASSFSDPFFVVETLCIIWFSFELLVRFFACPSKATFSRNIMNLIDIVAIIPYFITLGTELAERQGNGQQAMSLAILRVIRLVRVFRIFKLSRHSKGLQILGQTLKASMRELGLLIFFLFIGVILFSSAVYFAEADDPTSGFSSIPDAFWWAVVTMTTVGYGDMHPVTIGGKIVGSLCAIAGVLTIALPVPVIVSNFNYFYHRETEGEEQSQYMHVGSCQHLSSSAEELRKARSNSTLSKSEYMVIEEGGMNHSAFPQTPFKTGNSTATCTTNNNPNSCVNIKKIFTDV

Kv1.2 = molecular target: T2, Kv1.2 (Homo sapiens, UniProt P16389)
T2 construct: expressed in transfected cells; host or cells: Chinese Hamster Ovary (CHO)
T2 sequence (P16389 whole entry): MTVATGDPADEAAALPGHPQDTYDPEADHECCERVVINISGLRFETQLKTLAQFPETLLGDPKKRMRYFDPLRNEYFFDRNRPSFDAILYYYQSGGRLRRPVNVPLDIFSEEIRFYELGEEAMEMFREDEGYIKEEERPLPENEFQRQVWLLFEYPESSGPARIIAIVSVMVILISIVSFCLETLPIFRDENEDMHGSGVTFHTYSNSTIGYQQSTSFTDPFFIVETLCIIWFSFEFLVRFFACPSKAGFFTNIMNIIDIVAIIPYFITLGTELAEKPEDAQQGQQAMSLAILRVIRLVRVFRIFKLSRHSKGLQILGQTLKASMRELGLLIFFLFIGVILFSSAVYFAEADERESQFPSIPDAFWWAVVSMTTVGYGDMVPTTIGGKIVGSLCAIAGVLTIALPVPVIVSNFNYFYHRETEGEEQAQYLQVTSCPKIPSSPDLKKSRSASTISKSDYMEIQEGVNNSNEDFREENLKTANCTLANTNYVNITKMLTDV

Kv1.6 = molecular target: T3, Kv1.6 (Homo sapiens, UniProt P17658); details: for Selectivity Kv1.6/Kv1.3: ratio IC50[Kv1.6]/IC50[Kv1.3]
T3 construct: expressed in transfected cells; host or cells: Chinese Hamster Ovary (CHO)
T3 sequence (P17658 whole entry): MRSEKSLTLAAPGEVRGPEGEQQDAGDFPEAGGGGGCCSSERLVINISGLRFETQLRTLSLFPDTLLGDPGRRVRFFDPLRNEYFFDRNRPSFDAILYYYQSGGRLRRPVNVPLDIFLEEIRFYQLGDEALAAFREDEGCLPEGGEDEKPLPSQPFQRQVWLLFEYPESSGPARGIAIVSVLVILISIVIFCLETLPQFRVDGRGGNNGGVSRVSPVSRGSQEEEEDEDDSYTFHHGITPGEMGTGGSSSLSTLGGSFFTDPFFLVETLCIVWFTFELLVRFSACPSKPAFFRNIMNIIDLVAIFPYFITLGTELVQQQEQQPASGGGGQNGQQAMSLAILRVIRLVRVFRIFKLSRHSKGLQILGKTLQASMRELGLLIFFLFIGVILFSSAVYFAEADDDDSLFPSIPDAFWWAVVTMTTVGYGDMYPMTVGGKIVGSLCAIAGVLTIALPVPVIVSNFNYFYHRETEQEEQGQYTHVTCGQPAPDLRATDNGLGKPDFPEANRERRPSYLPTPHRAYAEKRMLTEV

Kv1.1 = molecular target: T4, Kv1.1 (Homo sapiens, UniProt Q09470); details: for Selectivity Kv1.1/Kv1.3: ratio IC50[Kv1.1]/IC50[Kv1.3]
T4 construct: expressed in transfected cells; host or cells: Chinese Hamster Ovary (CHO)
T4 sequence (Q09470 whole entry): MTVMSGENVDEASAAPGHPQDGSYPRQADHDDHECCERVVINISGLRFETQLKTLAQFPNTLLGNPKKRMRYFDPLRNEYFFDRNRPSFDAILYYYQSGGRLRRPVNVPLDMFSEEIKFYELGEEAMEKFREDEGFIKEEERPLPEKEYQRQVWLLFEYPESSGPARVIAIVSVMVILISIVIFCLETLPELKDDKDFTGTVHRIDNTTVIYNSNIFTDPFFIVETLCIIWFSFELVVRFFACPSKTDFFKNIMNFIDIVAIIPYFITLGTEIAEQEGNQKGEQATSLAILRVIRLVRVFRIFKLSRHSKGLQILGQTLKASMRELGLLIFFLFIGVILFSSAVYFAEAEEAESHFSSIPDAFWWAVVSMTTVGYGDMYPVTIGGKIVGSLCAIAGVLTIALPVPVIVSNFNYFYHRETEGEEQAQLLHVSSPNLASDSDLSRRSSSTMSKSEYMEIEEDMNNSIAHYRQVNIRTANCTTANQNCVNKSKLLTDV

Kv1.3 = molecular target: T5, Kv1.3 (Homo sapiens, UniProt P22001)
T5 construct: expressed in transfected cells; host or cells: Chinese Hamster Ovary (CHO)
T5 sequence (P22001 whole entry): as the sequence (P22001 whole entry) above

[2] = inhibition of thallium flux, CHO-DUKX cells with human Kv1.3, read-out: IC50
[3] = CHO cells, whole-cell patch clamp, read-out: Potency IC50 (nM) Kv1.2
[4] = CHO cells, whole-cell patch clamp, read-out: Potency IC50 (nM) Kv1.6
[5] = CHO cells, whole-cell patch clamp, read-out: Potency IC50 (nM) Kv1.1
[6] = CHO cells, whole-cell patch clamp, read-out: Potency IC50 (nM) Kv1.3

Row | SMILES | IC50 [1, 2] | IC50 (Kv1.2; [3]) | IC50 (Kv1.6; [4]) | Selectivity Kv1.6/Kv1.3 (Kv1.6) | IC50 (Kv1.1; [5]) | Selectivity Kv1.1/Kv1.3 (Kv1.1) | IC50 (Kv1.3; [6]) | IC50 [1] | IC50 (Kv1.2) | IC50 (Kv1.6) | IC50 (Kv1.1) | IC50 (Kv1.3) | Selectivity Kv1.2/Kv1.3 (Kv1.2; ratio IC50[Kv1.2]/IC50[Kv1.3])
1 | CC[C@H](C)[C@@H]1NC(=O)[C@H](CO)NC(=O)CNC(=O)[C@H](Cc2ccc(O)cc2)NC(=O)[C@H](C)NC(=O)[C@H](CCCCN)NC(=O)[C@H](CC(C)C)NC(=O)[C@@H]2CSSC[C@@H](C(=O)N[C@@H](Cc3ccc(O)cc3)C(=O)N3CCC[C@H]3C(=O)N[C@@H](CCCNC(=N)N)C(N)=O)NC(=O)[C@H](CCCCN)NC(=O)[C@@H]3CSSC[C@H](NC(=O)[C@H](CCC(=O)O)NC(=O)[C@H](C(C)C)NC(=O)[C@H](CO)NC(=O)[C@H](C)NC(=O)[C@H](CO)NC(=O)[C@@H](NC(=O)[C@H](CCCNC(=N)N)NC(=O)[C@H](CCSC)NC(=O)[C@H](CC(=O)O)NC(=O)[C@H](CCSC)NC(=O)[C@@H](N)CC(N)=O)CSSC[C@H](NC(=O)[C@H](CCCCN)NC(=O)CNC(=O)[C@H](Cc4ccccc4)NC1=O)C(=O)N[C@@H](CCSC)C(=O)N[C@@H](CC(N)=O)C(=O)N[C@@H](CCCCN)C(=O)N[C@@H](CCCCN)C(=O)N3)C(=O)N[C@@H](CCCCN)C(=O)N[C@@H](CCC(N)=O)C(=O)N[C@@H](CCCCN)C(=O)N2 [Compound 58] (H-NMDMRCSASVECKQKCLKAYGSIFGKCMNKKCKCYPR-NH2; disulfide 6-27, 12-32, 16-34) | 0.11 nM | 145 nM | > 3000 nM | >8800 | > 3000 nM | >8800 | 0.34 nM | – | – | – | – | – | –
2 | CCCC[C@@H]1NC(=O)[C@@H]2CSSC[C@H](NC(=O)[C@H](CCCNC(=N)N)NC(=O)[C@H](CCCC)NC(=O)[C@H](CCC(=O)O)NC(=O)[C@@H](NC(=O)[C@@H]3CCCN3)[C@@H](C)CC)C(=O)N[C@@H](CO)C(=O)N[C@@H](C)C(=O)N[C@@H](CO)C(=O)N[C@@H](C(C)C)C(=O)N[C@@H](CCC(=O)O)C(=O)N[C@H]3CSSC[C@H](NC(=O)[C@H](CCCCN)NC(=O)[C@H](CCCCN)NC(=O)[C@H](CC(N)=O)NC1=O)C(=O)N[C@@H](CCCCN)C(=O)N[C@H](C(=O)N[C@@H](Cc1ccc(O)cc1)C(=O)N1CCC[C@H]1C(=O)N[C@@H](CCCNC(=N)N)C(=O)O)CSSC[C@H](NC(=O)[C@H](CCCCN)NC(=O)[C@H](CCC(N)=O)NC(=O)[C@H](CCCCN)NC3=O)C(=O)N[C@@H](CC(C)C)C(=O)N[C@@H](CCCCN)C(=O)N[C@@H](C)C(=O)N[C@@H]([C@@H](C)CC)C(=O)NCC(=O)N[C@@H](CO)C(=O)N[C@@H]([C@@H](C)CC)C(=O)N[C@@H](Cc1ccccc1)C(=O)NCC(=O)N[C@@H](CCCCN)C(=O)N2 [Compound 96] (H-PIE[Nle]RCSASVECKQKCLKAIGSIFGKC[Nle]NKKCKCYPR-OH; disulfide 6-27, 12-32, 16-34) | – | – | – | – | – | – | – | 0.15 nM | 1760 nM | > 3000 nM | > 3000 nM | 0.39 nM | –
3 | CCCC[C@@H]1NC(=O)[C@@H]2CSSC[C@H](NC(=O)[C@H](CCCNC(=N)N)NC(=O)[C@H](CCCC)NC(=O)[C@H](CC(=O)O)NC(=O)[C@H](CCCC)NC(=O)[C@@H](N)CC(N)=O)C(=O)N[C@@H](CO)C(=O)N[C@@H](C)C(=O)N[C@@H](CO)C(=O)N[C@@H](C(C)C)C(=O)N[C@@H](CCC(=O)O)C(=O)N[C@H]3CSSC[C@H](NC(=O)[C@H](CCCCN)NC(=O)[C@H](CCCCN)NC(=O)[C@H](CC(N)=O)NC1=O)C(=O)N[C@@H](CCCCN)C(=O)N[C@H](C(=O)N[C@@H](Cc1ccc(O)cc1)C(=O)N1CCC[C@H]1C(=O)N[C@@H](CCCNC(=N)N)C(N)=O)CSSC[C@H](NC(=O)[C@H](CCCCN)NC(=O)[C@H](CCC(N)=O)NC(=O)[C@H](CCCCN)NC3=O)C(=O)N[C@@H](CC(C)C)C(=O)N[C@@H](CCCCN)C(=O)N[C@@H](C)C(=O)N[C@@H]([C@@H](C)CC)C(=O)NCC(=O)N[C@@H](CO)C(=O)N[C@@H]([C@@H](C)CC)C(=O)N[C@@H](Cc1ccccc1)C(=O)NCC(=O)N[C@@H](CCCCN)C(=O)N2 [Compound 40] (H-N[Nle]D[Nle]RCSASVECKQKCLKAIGSIFGKC[Nle]NKKCKCYPR-NH2; disulfide 6-27, 12-32, 16-34) | 0.1 nM | 113 nM | 1830 nM | – | > 3000 nM | >11600 | 0.26 nM | – | – | – | – | – | –
4 | CC[C@H](C)[C@@H]1NC(=O)[C@H](C)NC(=O)[C@H](CCCCN)NC(=O)[C@H](CC(C)C)NC(=O)[C@@H]2CSSC[C@@H](C(=O)N[C@@H](Cc3ccc(O)cc3)C(=O)N3CCC[C@H]3C(=O)N[C@@H](CCCNC(=N)N)C(N)=O)NC(=O)[C@H](CCCCN)NC(=O)[C@@H]3CSSC[C@H](NC(=O)[C@H](CCC(=O)O)NC(=O)[C@H](C(C)C)NC(=O)[C@H](CO)NC(=O)[C@H](C)NC(=O)[C@H](CO)NC(=O)[C@@H](NC(=O)[C@H](CCCNC(=N)N)NC(=O)[C@H](CCSC)NC(=O)[C@H](CC(=O)O)NC(=O)[C@H](CCSC)NC(=O)[C@@H](N)CC(N)=O)CSSC[C@H](NC(=O)[C@H](CCCCN)NC(=O)CNC(=O)[C@H](Cc4ccccc4)NC(=O)[C@H]([C@@H](C)CC)NC(=O)[C@H](CO)NC(=O)[C@H](CCC(=O)O)NC1=O)C(=O)N[C@@H](CCSC)C(=O)N[C@@H](CC(N)=O)C(=O)N[C@@H](CCCCN)C(=O)N[C@@H](CCCCN)C(=O)N3)C(=O)N[C@@H](CCCCN)C(=O)N[C@@H](CCC(N)=O)C(=O)N[C@@H](CCCCN)C(=O)N2 [Compound 22] (H-NMDMRCSASVECKQKCLKAIESIFGKCMNKKCKCYPR-NH2; disulfide 6-27, 12-32, 16-34) | 0.11 nM | 181 nM | > 3000 nM | >10200 | > 3000 nM | >10200 | 0.29 nM | – | – | – | – | – | –
5 | CCCC[C@@H]1NC(=O)[C@@H]2CSSC[C@H](NC(=O)[C@H](CCCNC(=N)N)NC(=O)[C@H](CCCC)NC(=O)[C@H](CC(=O)O)NC(=O)[C@H](CCCC)NC(=O)[C@@H](N)CC(N)=O)C(=O)N[C@@H](CO)C(=O)N[C@@H](C)C(=O)N[C@@H](CO)C(=O)N[C@@H](C(C)C)C(=O)N[C@@H](CCC(=O)O)C(=O)N[C@H]3CSSC[C@H](NC(=O)[C@H](CCCCN)NC(=O)[C@H](CCCCN)NC(=O)[C@H](CC(N)=O)NC1=O)C(=O)N[C@@H](CCCCN)C(=O)N[C@H](C(=O)N[C@@H](Cc1ccc(O)cc1)C(=O)N1CCC[C@H]1C(=O)N[C@@H](CCCNC(=N)N)C(N)=O)CSSC[C@H](NC(=O)[C@H](CCCCN)NC(=O)[C@H](CCCCN)NC(=O)[C@H](CCCCN)NC3=O)C(=O)N[C@@H](CC(C)C)C(=O)N[C@@H](CCCCN)C(=O)N[C@@H](C)C(=O)N[C@@H]([C@@H](C)CC)C(=O)NCC(=O)N[C@@H](CO)C(=O)N[C@@H]([C@@H](C)CC)C(=O)N[C@@H](Cc1ccccc1)C(=O)NCC(=O)N[C@@H](CCCCN)C(=O)N2 [Compound 45] (H-N[Nle]D[Nle]RCSASVECKKKCLKAIGSIFGKC[Nle]NKKCKCYPR-NH2; disulfide 6-27, 12-32, 16-34) | 0.16 nM | 257 nM | > 3000 nM | >4000 | > 3000 nM | >4000 | 0.75 nM | – | – | – | – | – | –
6 | CC[C@H](C)[C@@H]1NC(=O)[C@H](CCCNC(=N)N)NC(=O)[C@H](CCCCN)NC(=O)[C@H](CC(C)C)NC(=O)[C@@H]2CSSC[C@@H](C(=O)N[C@@H](Cc3ccc(O)cc3)C(=O)N3CCC[C@H]3C(=O)N[C@@H](CCCNC(=N)N)C(N)=O)NC(=O)[C@H](CCCCN)NC(=O)[C@@H]3CSSC[C@H](NC(=O)[C@H](CCC(=O)O)NC(=O)[C@H](C(C)C)NC(=O)[C@H](CO)NC(=O)[C@H](C)NC(=O)[C@H](CO)NC(=O)[C@@H](NC(=O)[C@H](CCCNC(=N)N)NC(=O)[C@H](CCSC)NC(=O)[C@H](CC(=O)O)NC(=O)[C@H](CCSC)NC(=O)[C@@H](N)CC(N)=O)CSSC[C@H](NC(=O)[C@H](CCCCN)NC(=O)CNC(=O)[C@H](Cc4ccccc4)NC(=O)[C@H]([C@@H](C)CC)NC(=O)[C@H](CO)NC(=O)CNC1=O)C(=O)N[C@@H](CCSC)C(=O)N[C@@H](CC(N)=O)C(=O)N[C@@H](CCCCN)C(=O)N[C@@H](CCCCN)C(=O)N3)C(=O)N[C@@H](CCCCN)C(=O)N[C@@H](CCC(N)=O)C(=O)N[C@@H](CCCCN)C(=O)N2 [Compound 56] (H-NMDMRCSASVECKQKCLKRIGSIFGKCMNKKCKCYPR-NH2; disulfide 6-27, 12-32, 16-34) | 0.087 nM | 57 nM | 932 nM | – | > 3000 nM | >9900 | 0.3 nM | – | – | – | – | – | –
7 | CC[C@H](C)[C@H](NC(=O)[C@H](C)NC(=O)[C@H](C)NC(=O)[C@H](C)N)C(=O)N[C@@H](CO)C(=O)N[C@H]1CSSC[C@@H]2NC(=O)[C@H](CCCCN)NC(=O)CNC(=O)[C@H](CC(N)=O)NC(=O)[C@H](CCCCN)NC(=O)[C@@H]3CSSC[C@@H](C(N)=O)NC(=O)[C@H](Cc4ccc(O)cc4)NC(=O)[C@H](Cc4ccc(O)cc4)NC(=O)[C@@H]4CSSC[C@H](NC(=O)[C@H](CCCCN)NC(=O)[C@@H]5CCCN5C(=O)[C@@H]5CCCN5C(=O)[C@H](CSSC[C@H](NC(=O)[C@H](CCCCN)NC(=O)[C@H](CCCNC(=N)N)NC(=O)[C@H](CC(N)=O)NC(=O)[C@H](CCSC)NC2=O)C(=O)N[C@@H](CCCCN)C(=O)N4)NC(=O)[C@H](CCC(=O)O)NC(=O)[C@@H]2CCCN2C(=O)[C@H](CO)NC(=O)CNC(=O)[C@H](C(C)C)NC1=O)C(=O)N[C@@H](CCCNC(=N)N)C(=O)N[C@@H](C)C(=O)N[C@@H](CCC(N)=O)C(=O)NCC(=O)N3 [Vm24, reference compound] | – | 4.7 nM | 21 nM | 139 | 0.097 nM | 0.65 | 0.15 nM | – | – | – | – | – | 31
